Data taken from paper PMC3597730, “Novel Phenolic Inhibitors of Small/Intermediate-Conductance Ca^2+-Activated K^+ Channels, KCa3.1 and KCa2.3” (PLoS ONE, 2013).
Values joined by “and” are separate entries in the source; they are usually repeats but may differ in a detail not shown here. Equal values may be shown once. “Also recorded” adds a separate entry of the source. Read-outs that look alike come from different tables or passages of the source. Values belong to the compound of their own block, whether it stands above or below them.

Legend:
hERG = tested on: T1, hERG; assay: Whole-cell patch-clamp of hERG tail currents in HEK293 cells; format: cell-based, human; settings: human, HEK293 cells expressing hERG, pH 7.4, hERG
T1 construct: expressed in transfected cells; gift of Craig January, University of Wisconsin

hERG channels = tested on: T2, hERG channels; assay: as above; format: cell-based, human; settings: 13b 1 µM; caffeic acid, flufenamic acid 10 µM (Table S1)
T2 construct: expressed in transfected cells; gift of Craig January, University of Wisconsin

3T3 fibroblasts = assay: Cell proliferation assay (Janus B Green staining); format: cell-based, mouse; settings: for change of proliferation vs. vehicle-treated controls: 3T3 cells
Description: Cell proliferation was spectrophotometrically assessed as described previously with some modifications. Briefly, 3T3 fibroblasts (1500 cells/well) were seeded in 96-well plates (TPP. Switzerland), cultured in DMEM containing 10% FCS (Lonza, Switzerland) with 13b or vehicle (DMSO), and formalin-fixed at days 0,1,2 and 3. To exclude the possibility that DMSO as vehicle affected the cell viability per se, final DMSO concentrations were the same for each concentration of 13b and the controls. Fixed cells were stained for 5 minutes with 50 ul/well of 0.3% Janus B Green dye (Acros Organics, Belgium) at room temperature with constant stirring followed by a de-staining step with water. Dye was eluted with 200 ul/well of 0.5 M HCl of hydrochloric acid and top-read measurements of absorbance were performed in a microplate reader (Sinergy HT, Biotek, USA) at 595 nm.

[1] = tested on: mixed KCa3.1 and KCa2.3 currents in PCAEC; assay: Whole-cell patch-clamp of KCa currents in porcine coronary artery endothelial cells; format: cell-based
[2] = molecular target: T3, KCa3.1 channels in 3T3 fibroblasts (Mus musculus, UniProt O89109); assay: Whole-cell patch-clamp of KCa3.1 currents in 3T3 fibroblasts; format: cell-based; settings: for KCa3.1 blocking effect (in words): concentrations up to 50 µM as in Table 1
T3 construct: KCa3.1 channels in 3T3 fibroblasts; endogenous in cells; host or cells: 3T3-L1 mouse embryonic fibroblasts

KCa1.1 = tested on: T4, KCa1.1; assay: Whole-cell patch-clamp of KCa1.1 in U251 glioblastoma cells; format: cell-based, human; settings: for KCa1.1 effect (in words): U251 glioblastoma cells, 13b 1 µM, caffeic acid 10 µM
T4 construct: KCa1.1 in human U251 glioblastoma cells; endogenous in cells; host or cells: U251 glioblastoma cells

hKCa2.3 [3] = molecular target: T5, hKCa2.3 (Homo sapiens, UniProt Q9UGI6); assay: Whole-cell patch-clamp of hKCa2.3 in COS7 cells; format: cell-based
T5 construct: expressed in transfected cells; host or cells: COS7

hKv1.2 = molecular target: T6, hKv1.2 (Homo sapiens, UniProt P16389); assay: Whole-cell patch-clamp of cloned hKv1.2; format: cell-based
T6 construct: expressed in transfected cells; host or cells: B82 murine fibroblasts (Methods)

[4] = tested on: porcine coronary artery rings; assay: Isometric myography: contractions to 60 mM K+; settings: 13b 0.5 µM, SKA-31 1 µM, alone or combined
Description: (§1) Myography on porcine coronary artery rings was performed as described in detail previously, [30]. In brief, left anterior descending arteries or posterior descending arteries were cut into rings (3 mm long) and rings were mounted onto a isometric force transducer (Pioden UF1, Graham Bell House, Canterbury, UK). The organ bath contained a 5 ml Krebs buffer maintained at 37°C and gassed with 95% O2/5% CO2. The composition of the Krebs buffer was as follows (in mM): NaCl 120, NaHCO3 24.5, CaCl2 2.4, KCl 4.7, MgSO4 1.2, KH2PO4 1 and glucose 5.6, pH 7.4. Each ring was passively stretched to an initial tension of 1 gr (10 mN). Changes in force were monitored and recorded on a computer using a Mac Lab System/8e program (AD Instruments Inc, Milford, Ma, USA), and digitalized at a sample rate of 0.5 sec.
(§2) To measure specifically endothelium-derived hyperpolarization-mediated vasorelaxation (EDH), the NO-synthase blocker, Nω-nitro-L-arginine (L-NNA, 300 µM), and the cyclooxygenase blocker, indomethacin (10 µM), were added to the buffer. Preparations were washed three times and were allowed to equilibrate for 40 min. Within this period, the incubation medium was renewed every 20 min. […] Ten min later, bradykinin (1 µM) was added for another 10 min, followed by washout (over at least 10 min). This protocol was repeated (2nd stimulation). Thereafter, we performed a 3rd round of pre-contraction and vasorelaxation, but using the vasospasmic thromboxane analogue U46619 (0.2 µM) as vasocontracting agent. At the end of the experiments, rings were allowed to contract maximally in a KCl (60 mM) buffer for 10 min followed by addition of the compounds. Finally, sodium nitroprusside (10 µM) was added to achieve maximal endothelium-independent vasorelaxation. […]
(§3) For data analysis, we determined absolute increases in force to 5-HT, U46619, or 60 mM KCl. Bradykinin-induced relaxations were determined as % change of pre-contraction to either vasocontracting compound and relative to the fully relaxed state (in the absence of the vasocontracting agent).

[5] = tested on: porcine coronary artery rings; assay: Isometric myography: U46619-induced contractions; settings: 13b 0.5 µM
Description: as §1
(§4) To measure specifically endothelium-derived hyperpolarization-mediated vasorelaxation (EDH), the NO-synthase blocker, Nω-nitro-L-arginine (L-NNA, 300 µM), and the cyclooxygenase blocker, indomethacin (10 µM), were added to the buffer. Preparations were washed three times and were allowed to equilibrate for 40 min. Within this period, the incubation medium was renewed every 20 min. […] Ten min later, bradykinin (1 µM) was added for another 10 min, followed by washout (over at least 10 min). This protocol was repeated (2nd stimulation). Thereafter, we performed a 3rd round of pre-contraction and vasorelaxation, but using the vasospasmic thromboxane analogue U46619 (0.2 µM) as vasocontracting agent. At the end of the experiments, rings were allowed to contract maximally in a KCl (60 mM) buffer for 10 min followed by addition of the compounds. Finally, sodium nitroprusside (10 µM) was added to achieve maximal endothelium-independent vasorelaxation.
(§5) DMSO as the vehicle had no vasoactive effect per se on the tissue. Other compounds were dissolved in Milli-Q water.
as §3

hKv1.3 = tested on: T7, hKv1.3; assay: Whole-cell patch-clamp of cloned hKv1.3; format: cell-based, human
T7 construct: expressed in transfected cells

[6] = tested on: porcine coronary artery rings; assay: Isometric myography: endothelium-independent relaxation to sodium nitroprusside; settings: pre-contracted by 60 mM K+; 13b 0.5 µM, SKA-31 1 µM, alone or combined
Description: as §1, §2, §3

[7] = tested on: porcine coronary artery rings; assay: Isometric myography: 5-HT-induced contractions; settings: 13b 0.5 µM
Description: as §1, §4, §5, §3

[8] = tested on: porcine coronary artery rings; assay: Isometric myography: bradykinin-induced (EDH) relaxation; settings: 13b 0.5 µM
Description: as §1, §4, §5, §3

[9] = molecular target: T8, cloned human KCa3.1 channel (Homo sapiens, UniProt O15554); assay: Inside-out patch recordings from hKCa3.1-overexpressing HEK293 cells; format: biochemical; settings: inside-out patches
T8 construct: expressed in transfected cells; gift of Khaled Houamed, University of Chicago

[10] = tested on: inward-rectifying K+ current (Kir) in U251 glioblastoma cells; assay: Whole-cell patch-clamp of native inward-rectifying K+ current in U251 cells; format: cell-based, human; settings: 1 µM, at −100 mV, n = 5
hKCa2.3 [11] = molecular target: T5, hKCa2.3; assay: Inside-out single-channel experiments on hKCa2.3; format: biochemical
[12] = whole-cell, 3T3 fibroblasts, read-out: EC50 of KCa3.1 inhibition
[13] = 1 µM 5-HT, SKA-31 1 µM, alone or combined
[14] = 1 µM bradykinin, SKA-31 1 µM, alone or combined

T6 sequence (P16389 whole entry): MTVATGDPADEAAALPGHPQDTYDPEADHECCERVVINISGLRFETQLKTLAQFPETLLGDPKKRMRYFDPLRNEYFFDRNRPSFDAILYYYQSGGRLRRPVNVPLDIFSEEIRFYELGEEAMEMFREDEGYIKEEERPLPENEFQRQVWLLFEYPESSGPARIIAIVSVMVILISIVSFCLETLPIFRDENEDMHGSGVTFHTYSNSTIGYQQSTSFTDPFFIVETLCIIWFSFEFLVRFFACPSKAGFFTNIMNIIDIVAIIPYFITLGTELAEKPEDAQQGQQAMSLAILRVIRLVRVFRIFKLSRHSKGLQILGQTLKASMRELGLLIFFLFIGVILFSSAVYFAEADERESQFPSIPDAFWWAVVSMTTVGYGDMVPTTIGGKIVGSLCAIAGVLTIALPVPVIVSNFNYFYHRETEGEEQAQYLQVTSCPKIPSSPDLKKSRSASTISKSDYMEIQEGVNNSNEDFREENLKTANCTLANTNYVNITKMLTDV
T5 sequence (Q9UGI6 whole entry): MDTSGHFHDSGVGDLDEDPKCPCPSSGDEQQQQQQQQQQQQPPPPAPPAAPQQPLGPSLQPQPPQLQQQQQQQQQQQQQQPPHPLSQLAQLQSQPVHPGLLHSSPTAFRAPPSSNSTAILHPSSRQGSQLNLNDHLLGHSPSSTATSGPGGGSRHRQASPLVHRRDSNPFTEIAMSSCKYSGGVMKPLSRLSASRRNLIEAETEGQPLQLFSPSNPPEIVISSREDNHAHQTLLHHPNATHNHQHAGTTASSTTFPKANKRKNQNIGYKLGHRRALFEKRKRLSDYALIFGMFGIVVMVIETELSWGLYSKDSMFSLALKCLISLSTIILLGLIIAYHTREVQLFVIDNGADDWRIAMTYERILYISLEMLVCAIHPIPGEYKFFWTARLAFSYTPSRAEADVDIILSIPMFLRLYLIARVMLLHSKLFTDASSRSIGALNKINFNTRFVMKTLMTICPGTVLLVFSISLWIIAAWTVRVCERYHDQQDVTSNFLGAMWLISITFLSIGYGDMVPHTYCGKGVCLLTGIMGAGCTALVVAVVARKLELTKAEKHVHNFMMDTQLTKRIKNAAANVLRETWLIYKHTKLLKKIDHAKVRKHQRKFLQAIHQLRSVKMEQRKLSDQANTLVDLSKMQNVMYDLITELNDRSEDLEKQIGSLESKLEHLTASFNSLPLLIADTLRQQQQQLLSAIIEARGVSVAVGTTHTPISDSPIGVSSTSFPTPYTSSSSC

remaining activity at 10 µM ([2]; read-out: KCa3.1 current blocked, % of control): 28 ± 10%
KCa3.1 blocking effect (in words) ([2]; whole-cell, 3T3 fibroblasts): Complete inhibition
EC50 [2, 12]: 1300 nM and 1000 to 10000 nM
remaining activity at 10 µM (hKCa2.3 [3]; COS-7, read-out: % of control at 10 µM): 108 ± 7%
remaining activity at 50 µM (hKCa2.3 [3]; COS-7, read-out: % of control at 50 µM): 97 ± 1%
KCa2.3 blocking effect (in words) (hKCa2.3 [3]; micromolar concentrations): no blocking effects
hKv1.2 blocking effect (in words) (hKv1.2; flufenamic acid and caffeic acid 10 and 50 µM, 13c 1 µM): did not block
remaining activity at 10 µM (hKv1.2; hKv1.2, compound 10 µM, read-out: % of control at 10 µM): 100 ± 2%
remaining activity at 50 µM (hKv1.2; hKv1.2, compound 50 µM, read-out: % of control at 50 µM): 97 ± 1%
Compound: O=C(O)/C=C/c1ccc(O)c(O)c1 [Caffeic Acid, (E)-3-(3,4-dihydroxyphenyl)propenoic acid]
activity at 10 µM (hERG; compound 10 µM, read-out: % of control at 10 µM): 97 ± 6%
hERG effect (in words) (hERG channels): not blocked
change of proliferation vs. vehicle-treated controls (3T3 fibroblasts; 25 µM): −27%
change of proliferation vs. vehicle-treated controls (3T3 fibroblasts; 50 µM): −56%
mixed KCa3.1/KCa2.3 current, % of control ([1]; 50 µM, n = 1): 6%
KCa1.1 effect (in words) (KCa1.1): no blocking or activating effects
% of control at 10 µM (KCa1.1; hKCa1.1, compound 10 µM): 103 ± 14%

remaining activity at 1 µM ([2]; KCa3.1 whole-cell current, 3T3 fibroblasts, 1 µM free Ca2+ in pipette, compound 1 µM, mean ± SEM, n ≥3, read-out: % of control at 1 µM): 4 ± 1%
EC50 ([2]; KCa3.1 whole-cell, 1 µM SKA-31, read-out: EC50 to suppress the SKA-31-induced current): 161 ± 121 nM
Hill coefficient ([2]; KCa3.1 whole-cell, 3T3 fibroblasts): ~1
KCa3.1 blocking effect (in words) ([2]; whole-cell, 3T3 fibroblasts): Complete inhibition
EC50 [2, 12]: 19 nM
remaining activity at 1 µM (hKCa2.3 [3]; COS-7, hKCa2.3, compound 1 µM, mean ± SEM, n ≥ 3, read-out: % of control at 1 µM): 4 ± 2%
Hill coefficient (hKCa2.3 [3]; hKCa2.3 whole-cell): ~1
EC50 (hKCa2.3 [3]; whole-cell, COS7 cells, 1 µM free Ca2+, read-out: EC50 of hKCa2.3 inhibition): 0.36 nM
EC50 ([9]; HEK293, 0.5 µM free Ca2+, read-out: EC50 of hKCa3.1 inhibition): 14 nM
Hill coefficient ([9]; hKCa3.1): ~1
inhibition at 0.1 µM (hKv1.2; 100 nM): 19%
remaining activity at 1 µM (hKv1.2; hKv1.2, compound 1 µM, read-out: % of control at 1 µM): 11 ± 2%
EC50 (hKv1.2; read-out: EC50 of hKv1.2 block): 550 ± 10 nM
EC50 (hKCa2.3 [11]; inside-out single channel experiments, read-out: EC50 of hKCa2.3 inhibition): 0.241 ± 0.129 nM
Hill coefficient (hKCa2.3 [11]; inside-out, hKCa2.3): ~1
Compound: O=C(OCc1cc(COC(=O)c2ccc(O)c(F)c2)cc(COC(=O)c2ccc(O)c(F)c2)c1)c1ccc(O)c(F)c1 [Compound 13b, [3,5-bis[(3-fluoro-4-hydroxy-benzoyl)oxymethyl]phenyl]methyl 3-fluoro-4-hydroxy-benzoate]
Δg, contraction to 60 mM K+ [4]: 3.1 ± 0.3 g
activity at 1 µM (hERG; compound 1 µM, read-out: % of control at 1 µM): 94 ± 3%
hERG effect (in words) (hERG channels): not blocked; also recorded: did not block
Δg ([5]; 0.2 µM U46619, SKA-31 1 µM, alone or combined): 2.8 ± 0.2 g
change of U46619 contraction vs. vehicle ([5]; alone or with SKA-31 1 µM): +29%
hKv1.3 blocking effect (in words) (hKv1.3; concentration of 10 µM as printed): not inhibited; also recorded: did not block
% of control at 1 µM (hKv1.3; hKv1.3, compound 1 µM): 96.4 ± 0.2%
change of proliferation vs. vehicle (3T3 fibroblasts; 0.5 µM, day 3): −23%
change of proliferation vs. vehicle (3T3 fibroblasts; 2 µM, day 3): –20%
cytotoxicity (in words) (3T3 fibroblasts; cultured 3T3 fibroblasts): not cytotoxic; also recorded: non-toxic
inhibition (reduction) of cell proliferation (3T3 fibroblasts; day 3, 0.5 and 2 µM): 20%
block of current potentiated by 1 µM SKA-31 (in words) ([1]; 1 µM 13b): almost fully blocked
KCa current, % of control ([1]; whole-cell, compound 1 µM): 14±7%
KCa1.1 effect (in words) (KCa1.1): not blocked
% of control at 1 µM (KCa1.1; hKCa1.1, compound 1 µM): 103 ± 3%
% relaxation to 10 µM SNP [6]: 84±4%
Δg, 1st stimulation [7, 13]: 0.7 ± 0.1 g
Δg, 2nd stimulation [7, 13]: 0.7 ± 0.1 g
change of amplitude of 5-HT contraction vs. vehicle, 1st stimulation [7]: +74%
change of amplitude of 5-HT contraction vs. vehicle, 2nd stimulation [7]: +90%
% relaxation, 5-HT-precontraction [8, 14]: 24±2%
% relaxation, U46619-precontraction [8, 14]: −1±1%
continued contraction of U46619-precontracted rings with bradykinin [8]: +1 % contraction
Kir current, % of control [10]: 98±2%
